Values quoted from earlier work as cited in US20080089936A1, “PROLONGED RELEASE FORMULATION OF ACTIVE PRINCIPLES HAVING A PH-DEPENDENT SOLUBILITY” (SANOFI-AVENTIS, priority 2005, published 2008).

Settings: hypnotic agent, oral

Cc1ccc(-c2nc3ccc(C)cn3c2CC(=O)N(C)C)cc1 [zolpidem]
duration of action: up to 6 hours
